The results in this text go back to US8796429B2, “Bioactive lipid derivatives, and methods of making and using same” (Lpath, Inc., priority 2006, dated 2014).

“Also recorded” adds a separate entry of the source.

The subject of one assay is Caki-1 cells. The experiment in a line: LPA-induced IL-8 release, ELISA of supernatants. Format: cell-based, human. The following applies: 18:1 LPA 0.2 mM, cells without mAb, 24 h. On the procedure:
Three anti-LPA mAbs (B3, B7 and B58) were tested for their abilities to reduce in vitro IL-8 production compared to a non-specific antibody (NS). Caki-1 cells were seeded in 96 well plates and grown to confluency. After overnight serum starvation, cells were treated with 18:1 LPA (0.2 mM) with or without anti-LPA mAb B3, B7, B58 or NS (Non-Specific). After 24 h, cultured supernatants of renal cancer cells (Caki-1), treated with or without LPA and in presence of increasing concentrations of the anti-LPA mAbs B3, B7 and B58, were collected and analyzed for IL-8 levels using a commercially available ELISA kit (Human Quantikine Kit, R&D Systems, Minneapolis, Minn.). […] Similar results were obtained with the other well-known pro-angiogenic factor, VEGF. The inhibition of IL-8 release by the anti-LPA mAbs was also observed in other cancerous cell lines such as the pancreatic cell line Panc-1.
In general terms: In an ELISA, binding on a coated surface is turned into a signal by an enzyme label.

The test system of a further assay is human cancer cell lines. The experiment in a line: LPA-induced cancer cell proliferation. It counts as cell-based. The note with it: LPA 0.01 mM to 10 mM; SKOV3, OVCAR3, Panc-1, Caki-1, DU-145, A549, HCT-116; also rat RBL-2H3. On the procedure: LPA is a potent growth factor supporting cell survival and proliferation by stimulation of Gi, Gq and G12/13 via GPCR-receptors and activation of downstream signaling events. Cell lines were tested for their proliferative response to LPA ([…]). Cell proliferation was assayed by using the cell proliferation assay kit from Chemicon (Temecula Calif.) (Panc-1) and the Cell-Blue titer from Pierce (Caki-1). Each data point is the mean of three independent experiments. […] Even though tumor-derived cells normally have high basal levels of proliferation, LPA appears to further augment proliferation in most tumor cell lines. Anti-LPA mAbs (B7 and B58) were assessed for the ability to inhibit LPA-induced proliferation in selected human cancer cell lines.

In the next assay the test system is SKOV3 cells. The experiment in a line: Taxol-induced apoptosis (caspase activity). Format: cell-based, human. On the procedure:
The ability of LPA to protect ovarian tumor cells against apoptosis when exposed to clinically-relevant levels of the chemotherapeutic agent, paclitaxel (Taxol) was investigated. SKVO3 cells were treated with 1% FBS (S), Taxol ([…]), +/− anti-LPA mAbs for 24 h. […] Apoptosis was assayed by measurement of the caspase activity as recommended by the manufacturer (Promega). As anticipated, LPA protected most of the cancer cell lines tested from taxol-induced cell death. […] Moreover, the anti-LPA antibody was able to remove the protection provided by serum. Serum is estimated to contain about […] LPA. […] Taxol-induced caspase activation was enhanced by the addition of all 3 of the anti-LPA mAbs to the culture medium.

A short description of assay [1]: Direct ELISA, chimeric antibody and mutants binding to S1P. The following applies: for Binding: antibody 0.1 ug/ml, optical density at 450 nm. On the procedure:
Microtiter ELISA plates (Costar) were coated overnight with S1P diluted in 1 M Carbonate Buffer (pH 9.5) at 37° C. for 1 hr. Plates were washed with PBS (137 mM NaCl, 2.68 mM KCl, 10.1 mM Na2HPO4, 1.76 mM KH2PO4; pH 7.4) and blocked with PBS/BSA/Tween-20 for 1 hr at room temp or overnight at 4° C. For the primary incubation (1 hr at room temp.), a standard curve using the anti-S1P mAb and the samples to be tested for binding was built using the following set of dilutions: 0.4 μg/mL, 0.2 μg/mL, 0.1 μg/mL, 0.05 μg/mL, 0.0125 μg/mL, and 0 μg/mL, and 100 μl added to each well. Plates were washed and incubated with 100 μl per well of HRP conjugated goat anti-mouse (1:20,000 dilution) (Jackson Immuno Research) or HRP conjugated goat anti-human (H+L) diluted 1:50,000 (Jackson Immuno Research) for 1 hr at room temperature. After washing, the enzymatic reaction was detected with tetramethylbenzidine (Sigma) and stopped by adding 1 M H2SO4. The optical density (OD) was measured at 450 nm using a Thermo Multiskan EX. Raw data were transferred to GraphPad software for analysis.
The chromogenic reaction was measured and reported as Optical density (OD). The concentration of the panel of antibodies was 0.1 ug/ml. No interaction of the second antibody with S1P-coated matrix alone was detected.

The nature of assay [2]: Competitive ELISA, specificity of anti-S1P mAb. Format: binding. On the procedure: (§1) Screening of serum and cell supernatant for S1P-specific antibodies was by direct ELISA using the thiolated S1P analog described in Example 1 (i.e., compound 10) as the antigen. A standard ELISA was performed, as described below, except that 50 ul of sample (serum or cell supernatant) was diluted with an equal volume of PBS/0.1% Tween-20 (PBST) during the primary incubation. ELISAs were performed in 96-well high binding ELISA plates (Costar) coated with 0.1 μg of chemically-synthesized compound 10 conjugated to BSA in binding buffer (33.6 mM Na2CO3, 100 mM NaHCO3; pH 9.5). The thiolated-S1P-BSA was incubated at 37° C. for 1 hr. at 4° C. overnight in the ELISA plate wells. The plates were then washed four times with PBS (137 mM NaCl, 2.68 mM KCl, 10.14 mM Na2HPO4, 1.76 mM KH2PO4; pH 7.4) and blocked with PBST for 1 hr. at room temperature. For the primary incubation step, 75 uL of the sample (containing the S1P to be measured), was incubated with 25 uL of 0.1 ug/mL anti-S1P mAb diluted in PBST and added to a well of the ELISA plate. Each sample was performed in triplicate wells. Following a 1 hr. incubation at room temperature, the ELISA plates were washed four times with PBS and incubated with 100 ul per well of 0.1 ug/mL HRP goat anti-mouse secondary (Jackson Immunoresearch) for 1 hr. at room temperature. Plates were then washed four times with PBS and exposed to tetramethylbenzidine (Sigma) for 1-10 minutes. The detection reaction was stopped by the addition of an equal volume of 1M H2SO4. Optical density of the samples was determined by measurement at 450 nm using an EL-X-800 ELISA plate reader (Bio-Tech).
For cross reactivity, a competitive ELISA was performed as described above, except for the following alterations (FIG. 4). The primary incubation consisted of the competitor (S1P, SPH, LPA, etc.) and a biotin-conjugated anti-S1P mAb. Biotinylation of the purified monoclonal antibody was performed using the EZ-Link Sulfo-NHS-Biotinylation kit (Pierce). Biotin incorporation was determined as per kit protocol and ranged from 7 to 11 biotin molecules per antibody. […]

Assay [3] is described as follows: ELISA with exchanged crosslinker or protein carrier in the laydown material. It counts as binding. The text has this:
For example, the normal crosslinker SMCC was exchanged for IOA in conjugating the thiolated-S1P to BSA as the laydown material in the ELISA. […] Similarly, KLH was exchanged for BSA as the protein that was complexed with thiolated-S1P as the laydown material.

The nature of assay [4]: Competitive ELISA, specificity of anti-S1P mAb (free lipid competes with plate-bound S1P). Format: binding. The note with it: competitor free S1P. On the procedure:
as §1, with “Each sample was performed in triplicate wells. Following a 1 hr. incubation at room temperature, the ELISA plates were washed four times with PBS and incubated with 100 ul per well of 0.1 ug/mL HRP goat anti-mouse secondary (Jackson Immunoresearch) for 1 hr. at room temperature. Plates were then washed four times with PBS and exposed to tetramethylbenzidine (Sigma) for 1-10 minutes. The detection reaction was stopped by the addition of an equal volume of 1M H2SO4.” left out
For cross reactivity, a competitive ELISA was performed as described above, except for the following alterations (FIG. 4). […] Biotin incorporation was determined as per kit protocol and ranged from 7 to 11 biotin molecules per antibody. […]

Regarding lysophosphatidic acid [LPA], in the assay on Caki-1 cells, the “increase of IL-8 expression” value is on record as 100%. Besides, in the assay with human cancer cell lines, the “proliferative response to LPA” value is on record as “increased proliferation”. In the assay on SKOV3 cells (Taxol 0.5 mM, 24 h), the “protection from Taxol-induced apoptosis” value is listed as “protected SKVO3 cells from Taxol-induced apoptosis”.

As for `CC(=O)O[C@H]1C(=O)[C@@]2(C)[C@H]([C@H](OC(=O)c3ccccc3)[C@]3(O)C[C@H](OC(=O)[C@H](O)[C@@H](NC(=O)c4ccccc4)c4ccccc4)C(C)=C1C3(C)C)[C@]1(OC(C)=O)CO[C@@H]1C[C@@H]2O` [Taxol, paclitaxel], in the assay with SKOV3 cells (SKOV3 cells), the “caspase-3,7 activation” value is “induced caspase-3,7 activation”.

Take CysPhe: the “binding to S1P compared with the chimeric antibody” value in assay [1] (ELISA, substitution of Cys 50 in heavy chain CDR2) is recorded as “did not alter the binding”. In assay [1], this molecule gave a Binding of 2 OD.

With MetLeu, the Binding in assay [1] worked out at 1.6 OD.

B1: anti-S1P mAb: murine IgG1 kappa monoclonal antibody against S1P from hybridoma clone 306D326.26 (ATCC SD-5362) (antibody, listed as Mus musculus, V domains shown)
VH: QAHLQQSDAELVKPGASVKISCKVSGFIFIDHTIHWMKQRPEQGLEWIGCISPRHDITKYNEMFRGKATLTADKSSTTAYIQVNSLTFEDSAVYFCARGGFYGSTIWFDFWGQGTTLTVS
VL: ETTVTQSPASLSMAIGEKVTIRCITTTDIDDDMNWFQQKPGEPPNLLISEGNILRPGVPSRFSSSGYGTDFLFTIENMLSEDVADYYCLQSDNLPFTFGSGTKLEIK
With B1, in assay [2] (competition experiment), the “discrimination of thiolated-S1P analog from natural S1P” value is reported as “unable to distinguish”. Further, the “competition for mAb binding to S1P on the plate” value in assay [2] (competitor DH-S1P) was “can compete for binding”; in assay [2] (competitor SPC (phosphate linked with choline)) it was “somewhat reduced; also recorded: only slightly competes for binding”; in assay [4], “can compete for binding”. For the same molecule, in assay [3] (KLH complexed with thiolated-S1P), the “binding characteristics, laydown with KLH instead of BSA” value is given as “no significant difference”. In addition, the “binding characteristics, laydown with IOA instead of SMCC” value in assay [3] (thiolated-S1P conjugated to BSA, compared with BSA-SMCC-thiolated-S1P) is on record as “nearly identical”.
